Experimental data published in US20050148500A1, “Dopaminergic stimulatory factor” (priority 2001, published 2005).

Tested on: MN9D cells
Test: Dopamine content of MN9D cells in monolayer culture after incubation with protein (HPLC)
Assay type: cell-based, mouse
Method: […] The MN9D cells on each plate were then collected in 10 ml of CMF, transferred to 15 ml centrifuge tubes and centrifuged at 1000×g for 5 min. The supernatant was removed and 600 μl of 0.5 N perchloric acid was added to the cell pellet which was then sonicated on ice for 10-15 s. The cell extract was centrifuged at 4000×g for 30 min and the supernatant stored at −80° C. for subsequent high pressure liquid chromatography (HPLC) analysis of MN9D cell dopamine content. The pellet was stored at −20° C. for subsequent protein analysis.
A second experiment was then conducted to determine whether this effect was due to a change in the doubling time (24 h) of the MN9D cells with increased cell production or was the result of an increase in cellular dopamine. […] Cells were removed from the plates and cell numbers determined by counting in a hematocytometer. Dopamine content was determined by HPLC analysis. […]
After this period, the MN9D cells on each plate are collected in 10 ml of CMF, transferred to 15 ml centrifuge tubes and centrifuged at 1000×g for 5 min. […] MN9D cell DA content is determined by reverse phase high pressure liquid chromatography with electrochemical detection (HPLC-ED) as previously described (Heller et al., 1993). […]

Q: How did the “effect on MN9D DA levels” value turn out when insulin growth factor II [IGF-II] was run?
A: Its value is “without effect”.
